pKi: −log10 of the molar value. Active and inactive are the calls of the source. The rule behind the calls is not given here.
Assays:
[1] = biological target: T1, Protein kinase C alpha type (Homo sapiens, UniProt P17252); test: Displacement of [3H]PDBu from human recombinant PKCalpha after 20 mins by liquid scintillation counting
[2] = biological target: T1, Protein kinase C alpha type; test: Activation of human recombinant PKCalpha assessed as rate of phosphate incorporation into PepTag C1 peptide at 1 to 100 uM after 40 mins by agarose gel electrophoresis analysis
[3] = biological target: T1, Protein kinase C alpha type; test: Activation of human recombinant PKCalpha assessed as rate of phosphate incorporation into PepTag C1 peptide at 100 uM after 40 mins by agarose gel electrophoresis analysis relative to control
[4] = biological target: T1, Protein kinase C alpha type; test: Activation of human recombinant PKCalpha assessed as rate of phosphate incorporation into PepTag C1 peptide at 10 uM after 40 mins by agarose gel electrophoresis analysis relative to control
[5] = biological target: T1, Protein kinase C alpha type; test: Activation of human recombinant PKCalpha assessed as rate of phosphate incorporation into PepTag C1 peptide at 1 uM after 40 mins by agarose gel electrophoresis analysis relative to control
[6] = biological target: T1, Protein kinase C alpha type; test: Activation of human recombinant PKCalpha assessed as rate of phosphate incorporation into PepTag C1 peptide at 0.1 uM after 40 mins by agarose gel electrophoresis analysis relative to control
[7] = biological target: T1, Protein kinase C alpha type; test: Activation of human recombinant PKCalpha assessed as rate of phosphate incorporation into PepTag C1 peptide at 0.01 uM after 40 mins by agarose gel electrophoresis analysis relative to control
[8] = biological target: T1, Protein kinase C alpha type; test: Activation of human recombinant PKCalpha assessed as rate of phosphate incorporation into PepTag C1 peptide at 0.001 uM after 40 mins by agarose gel electrophoresis analysis relative to control
[9] = biological target: T1, Protein kinase C alpha type; test: Activation of human recombinant PKCalpha assessed as rate of phosphate incorporation into PepTag C1 peptide at 0.0001 uM after 40 mins by agarose gel electrophoresis analysis relative to control

Structure (SMILES) | pKi [1] | Activity [2] | other results
CCCCCCCCCCCCO[C@H]1[C@@H](OC(C)=O)[C@H](OC(C)=O)[C@@H](OCC#Cc2cccc3c2C(=O)O[C@]3(CO)COC(=O)C(C(C)(C)C)C(C)(C)C)[C@H](OC(C)=O)[C@H]1OC(C)=O | 5.63 | Active | –
CCCCCCCCCCCCO[C@H]1[C@@H](OCc2ccc(F)cc2)[C@H](OCc2ccc(F)cc2)[C@@H](OCC#Cc2cccc3c2C(=O)O[C@]3(CO)COC(=O)C(C(C)(C)C)C(C)(C)C)[C@H](OCc2ccc(F)cc2)[C@H]1OCc1ccc(F)cc1 | < 4.70 | Active | –
CCCCCCCCCCCCO[C@@H]1[C@H](OCC=C(C)C)[C@@H](OC/C=C/C(C)C)[C@H](OCC#Cc2cccc3c2C(=O)O[C@]3(CO)COC(=O)C(C(C)(C)C)C(C)(C)C)[C@@H](OCC=C(C)C)[C@@H]1OCC=C(C)C | < 4.70 | Active | –
CCCCCCCCCCCCO[C@@H]1[C@H](OC)[C@@H](OC)[C@H](OCC#Cc2cccc3c2C(=O)O[C@]3(CO)COC(=O)C(C(C)(C)C)C(C)(C)C)[C@@H](OC)[C@@H]1OC | 6.22 | Active | –
CCCCCCCCCCCCO[C@H]1[C@@H](OCc2ccc(C(C)C)cc2)[C@H](OCc2ccc(C(C)C)cc2)[C@@H](OCC#Cc2cccc3c2C(=O)O[C@]3(CO)COC(=O)C(C(C)(C)C)C(C)(C)C)[C@H](OCc2ccc(C(C)C)cc2)[C@H]1OCc1ccc(C(C)C)cc1 | < 4.70 | Active | –
CCCCCCCCCCCCCC(=O)O[C@@H]1[C@@H](C)[C@@]2(O)[C@@H](C=C(CO)C[C@]3(O)C(=O)C(C)=C[C@@H]23)[C@@H]2C(C)(C)[C@]12OC(C)=O | – | – | Activity [3]: 108%; Activity [4]: 100%; Activity [5]: 85.3%; Activity [6]: 80.6%; Activity [7]: 62.4%; Activity [8]: 11.1%; Activity [9]: 0.58%
CCCCCCCCCCCCOc1cccc2c1C(=O)O[C@]2(CO)COC(=O)CCCCCCCCCCC | < 5.52 | – | –
CCCCCCCCCCCCO[C@H]1[C@@H](OCc2ccccc2)[C@H](OCc2ccccc2)[C@@H](OCC#Cc2cccc3c2C(=O)O[C@]3(CO)COC(=O)C(C(C)(C)C)C(C)(C)C)[C@H](OCc2ccccc2)[C@H]1OCc1ccccc1 | < 4.70 | Active | –
CCCCCCCCCCCCOc1cccc2c1C(=O)O[C@]2(CO)COC(=O)C(C(C)(C)C)C(C)(C)C | 7.37 | – | –

— ChEMBL document CHEMBL1777762, “Design and synthesis of protein kinase Cα activators based on 'out of pocket' interactions” (Bioorg Med Chem Lett, 2011)
